# PMC10823475, “Design, Synthesis, and Evaluation of Inhibitors of Hedgehog Acyltransferase” (Journal of Medicinal Chemistry, 2024)
# Columns and labels:
# HEK293a SHH+ cells = assay: MTS assay, cytotoxicity (72 h); assay type: cell-based; settings: for CC50: 72 h, read-out: MTS Assay (HEK293a SHH+) CC50 (CI95); for decrease in cell viability / cell survival: 12.5 μM
# Protocol: (§1) The survival of HEK293a SHH^+ cells is independent of HH signaling,[35] therefore, the cytotoxicity of analogues was tested using the MTS assay to investigate off-target toxicity. In this assay, HEK293a SHH^+ cells were treated with DMSO vehicle or varying concentrations of analogues for 72 h. Subsequently, a mixture of 1-methoxy phenazine methosulfate (PMS) and [3-(4,5-dimethylthiazol-2-yl)-5-(3-carboxymethoxyphenyl)-2-(4-sulfophenyl)-2H-tetrazolium] (MTS) was added to enable quantification of cell number via colorimetric analysis. […] Compounds 3, 17, 19, 32, 34, 38, and 45, which all contain a 2-((2-methylbutyl)amino)acetyl, were toxic to HEK293a SHH^+ cells, as were ureas 26, 40, and 41.
# (§2) HEK293a SHH^+ cells were plated at 5000 cells/well in a 96-well plate (Nunc) using a volume of 50 μL/well and cultured for 24 h as described. Cells were treated with 100 μL/well of either DMSO vehicle, Puromycin (2 μg/mL), or stated analogues (0.14–100 μM final) in DMEM supplemented with 10% FBS. After 72 h, 20 μL/well of a mixture of 1-methoxy phenazine methosulfate (PMS) and [3-(4,5-dimethylthiazol-2-yl)-5-(3-carboxymethoxyphenyl)-2-(4-sulfophenyl)-2H-tetrazolium] (MTS) at a ratio of MTS/PMS = 2/0.92 mg/mL in PBS was added and the plates were incubated for 3 h at 37 °C. Subsequently, the absorption at 490 nm was recorded using an EnVision Xcite 2104 (PerkinElmer), and the response was normalized to vehicle control and Puromycin treated samples. Dose response curves were fitted to a “sigmoidal dose response (variable slope)” model using GraphPad Prism 5 (GraphPad Software, Inc.).
# [1] = MTS assay, cytotoxicity (72 h); assay type: cell-based; settings: human, HEK293a SHH+ cells, 72 h; for CC50 at 72 h: read-out: MTS Assay (HEK293a SHH+) CC50 (CI95)
# Protocol: as §1, §2
# [2] = system: HH signaling (HEK293a SHH+ conditioned media on SHH-Light2 cells); assay: Light2 dual-luciferase cell-based HH signaling assay (Firefly); settings: Firefly luciferase, Light2 cells; read-out: HH signaling inhibition EC50 (CI95)
# Protocol: Subsequently, the effect of analogues on HH signaling was investigated using a cellular luciferase reporter assay. Light2 cells derived from NIH3T3 cells constitutively express Renilla luciferase as an internal control for cell density alongside Firefly luciferase under the control of a HH-responsive Gli promoter.[43] HEK293a SHH^+ cells were incubated with varying inhibitor concentrations and SHH-containing conditioned media transferred to the NIH3T3-Light2 cells to mimic paracrine signaling[30],[35] (Figure 6A).
# The Light2 cell-based signaling assay has been described previously.[35] Briefly, HEK293a SHH^+ cells were plated at 120,000 cells/well of a 12-well plate in a volume of 1 mL/well and cultured as described above. After 24 h, cells were washed with PBS, followed by addition of 1 mL of media containing 0.2% DMSO or varying inhibitor concentrations in DMSO (0.041–30 μM final). Additionally, SHH-Light2 cells were plated at 20,000 cells/well of a 96-well plate in 50 μL media. After another 24 h, 300 μL of the conditioned media were collected from each well of the treated HEK293a SHH^+ cells, centrifuged at 1000g for 10 min to remove detached cells and split into three wells of the SHH-Light2 cells (100 μL/well; 150 μL final volume in each well). The treated Light2 cells were cultured for another 48 h and subsequently washed with PBS. Firefly and Renilla luciferase activity was measured using the Dual-Luciferase reporter system (Promega Corporation, USA). Then 20 μL of 1× passive lysis buffer were added to each well. After 30 min at RT, 5 μL of each lysate were transferred to a white opaque 96-well plate. Then 20 μL/well of luciferase assay reagent II was added and the luminescence immediately recorded using a SpectraMax i3x plate reader (Molecular Devices LLC). Subsequently, 20 μL/well of 1× Stop&Glo substrate in Stop&Glo buffer was added and the luminescence immediately recorded for a second time. Data was evaluated using a “sigmoidal dose response (variable slope)” model in GraphPad Prism 5 (GraphPad Software, Inc.). The luminescence signal of the Firefly luciferase was normalized to the DMSO vehicle (100%) and the unconditioned media (0%) controls.
# purified HHAT = target: T1, purified HHAT (Homo sapiens, UniProt Q5VTY9); assay: Acyl-cLIP assay, inhibition of purified HHAT; assay type: biochemical; settings: for LLEAcyl-cLIP: from Acyl-cLIP IC50 and clogDpH7.4; for IC50: purified HHAT, read-out: Acyl-cLIP Assay IC50 (CI95)
# T1 construct: made in house
# Protocol: The inhibitory potency of all 50 compounds against purified HHAT was quantified using the acylation-coupled lipophilic induction of polarization (acyl-cLIP) assay recently developed in our lab, a universally applicable assay for high-throughput analysis of protein–lipid transferases and hydrolases.[31],[40] In brief, in this assay a fluorescently labeled peptide based on the N-terminal sequence of SHH is incubated with N-dodecyl β-D-maltoside (DDM) solubilized purified HHAT, palmitoyl-CoA, and HHAT inhibitors. Binding of the lipidated peptide product to the DDM micelle results in decreased tumbling rate and an increase in polarization of fluorescence emission, enabling facile quantification of HHAT activity. Initially, % HHAT inhibition was determined at 50 μM and 25 μM for all analogues. […] HHAT is a 12-pass TM protein,[14] and we considered whether lipophilicity might bias inhibition; pIC50 values were compared to calculated log D, which indicated no significant correlation (SI, Table S1 and Figure S2). We concluded that lipophilicity is not a general driver of HHAT inhibitory potency.
# The acyl-cLIP assay has been described previously.[40] Briefly, SHH-FAM peptide was diluted in buffer A (100 mM MES, 20 mM NaCl, 1 mM DTT, 1 mM TCEP, 0.1% BSA, pH 6.5) to a concentration of 2 μM. Palmitoyl-CoA (Sigma-Aldrich) was diluted in buffer A to 7.5 μM and recombinant HHAT (obtained by following the published protocol[14]) in buffer B (20 mM HEPES, 350 mM NaCl, 1% DDM, 5% glycerol, pH 7.3) diluted to 44 μg/mL. 1.5 μL of a 50 mM inhibitor DMSO stock was diluted with 18.5 μL of DMSO and further serial diluted (1:1). For each condition, 6 μL of the HHAT working stock and […] of the SHH-peptide working stock were mixed with 3 μL of the corresponding inhibitor concentration or DMSO vehicle. Twelve μL/well of this mixture was split into four wells of a black 384 well plate. To start the reaction, 8 μL of the Pal-CoA working stock were added to each well and fluorescence anisotropy and the total fluorescence recorded on an EnVision Xcite 2104 (PerkinElmer) over 30 min (emission filter 1 = FITC FP P-pol 535; emission filter 2 = FITC S-pol 535; excitation filter: FITC FP 480; measurement height = 6.5 mm; detector gain = 0; high concentration gain). Initial rate constants were determined by linear regression and normalized to DMSO control and samples with buffer B instead of HHAT. IC50 values were extracted from the corresponding dose response curves using a “sigmoidal dose response (variable slope)” model in GraphPad Prism 5 (GraphPad Software, Inc.).
# T1 sequence (Q5VTY9 whole entry): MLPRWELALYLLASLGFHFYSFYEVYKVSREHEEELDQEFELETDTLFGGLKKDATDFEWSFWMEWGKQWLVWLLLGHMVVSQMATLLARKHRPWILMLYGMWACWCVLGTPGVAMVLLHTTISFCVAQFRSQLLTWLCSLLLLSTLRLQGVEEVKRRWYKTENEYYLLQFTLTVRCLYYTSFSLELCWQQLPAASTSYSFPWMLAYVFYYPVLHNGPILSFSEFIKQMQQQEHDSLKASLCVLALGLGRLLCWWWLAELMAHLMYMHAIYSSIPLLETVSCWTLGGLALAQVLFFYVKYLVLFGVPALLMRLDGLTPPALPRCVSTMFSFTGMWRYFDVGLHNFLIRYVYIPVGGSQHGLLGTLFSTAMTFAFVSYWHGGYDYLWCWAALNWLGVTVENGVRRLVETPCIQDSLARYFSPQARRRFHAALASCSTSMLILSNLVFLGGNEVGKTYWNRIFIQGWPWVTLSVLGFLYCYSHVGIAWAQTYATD
Compound,inhibition at 25 µM (purified HHAT) [%],inhibition at 50 µM (purified HHAT) [%],LLEAcyl-cLIP (purified HHAT),IC50 (purified HHAT) [µM],"fold increase in potency compared to racemate (purified HHAT; enantiomer vs racemate (29 vs 21, 30 vs 24, 43 vs 39)) [fold]",CC50 (HEK293a SHH+ cells) [µM],CC50 at 72 h [1] [µM],"viability at 72 h, 12.5 µM [1] [%]","viability at 72 h, 25 µM [1] [%]",EC50 [2] [µM],decrease in cell viability / cell survival (HEK293a SHH+ cells) [%],toxicity to HEK293a SHH+ cells (HEK293a SHH+ cells)
"CC(C)CNCC(=O)N1CCc2ccccc2C1c1ccccc1 (centres unmarked) [Compound 39, 2-((2-Methylpropyl)amino)-1-(1-phenyl-3,4-dihydroisoquinolin-2(1H)-yl)ethan-1-one]",81 ± 2,86 ± 1,3.30,6.02,,> 100,> 50,94 ± 3,92 ± 4,2.59,< 30,
CC(=O)N1CCc2sccc2C1c1cccc(C)n1 (centres unmarked) [Compound 21],72 ± 3,82 ± 3,2.84,13.4,,,> 100,98 ± 4,94 ± 3,5.46,,
COc1ccccc1C1c2ccsc2CCN1C(C)=O (centres unmarked) [Compound 31],68 ± 4,81 ± 2,2.21,11.9,,,16.5,60 ± 4,23 ± 1,> 30,,
"CC(=O)N1CCc2sccc2[C@@H]1c1cccc(C)n1 [Compound 29, (R)-1-(4-(6-Methylpyridin-2-yl)-6,7-dihydrothieno[3,2-c]pyridin-5(4H)-yl)ethan-1-one]",76 ± 2,86 ± 2,3.10,7.45,2,> 100,> 50,92 ± 3,88 ± 5,1.29,< 30,
C=CC(=O)N1CCc2sccc2C1c1cccc(C)c1 (centres unmarked) [Compound 16],51 ± 7,62 ± 8,0.66,15,,,19.8,51 ± 1,34 ± 3,2.96,,

# More lines, main results first:
inhibition at 25 µM (purified HHAT) [%],inhibition at 50 µM (purified HHAT) [%],LLEAcyl-cLIP (purified HHAT),IC50 (purified HHAT) [µM],"fold increase in potency compared to racemate (purified HHAT; enantiomer vs racemate (29 vs 21, 30 vs 24, 43 vs 39)) [fold]",Compound,CC50 (HEK293a SHH+ cells) [µM],CC50 at 72 h [1] [µM],"viability at 72 h, 12.5 µM [1] [%]","viability at 72 h, 25 µM [1] [%]",EC50 [2] [µM],decrease in cell viability / cell survival (HEK293a SHH+ cells) [%],toxicity to HEK293a SHH+ cells (HEK293a SHH+ cells)
87 ± 7,86 ± 8,4.04,3.71,,CC[C@H](C)CNCC(=O)N1CCc2sccc2C1c1cccc(C)n1 (some centres unmarked) [Compound 23],> 100,> 50,87 ± 2,74 ± 3,1.58,,
80 ± 5,86 ± 4,3.90,4.62,,Cc1cccc(C2c3ccsc3CCN2C(=O)CNCCC(C)C)n1 (centres unmarked) [Compound 25],,15.3,74 ± 2,27 ± 4,4.25,,
81 ± 1,91 ± 1,3.84,7.98,,"CCC(C)CNCC(=O)N1CCc2sccc2C1c1ccccn1 (centres unmarked) [Compound 19, 2-(2-Methylbutylamino)-1-[4-(pyridin-2-yl)-6,7-dihydro-4H-thieno[3,2-c]pyridin-5-yl]ethanone]",,20.3,87 ± 1,75 ± 4,0.58,< 30,toxic
68 ± 5,83 ± 1,2.94,6.55,,"C=CCNCC(=O)N1CCc2sccc2C1c1ccccc1 (centres unmarked) [Compound 12, 2-(Allylamino)-1-(4-phenyl-6,7-dihydrothieno[3,2-c]pyridin-5(4H)-yl)ethan-1-one]",,> 50,86 ± 2,73 ± 2,2.92,< 30,
89 ± 3,93 ± 3,2.43,4.22,,"CCC(C)CNCC(=O)N1CCc2ccc(Cl)cc2C1c1ccccc1 (centres unmarked) [Compound 45, 1-(7-Chloro-1-phenyl-3,4-dihydroisoquinolin-2(1H)-yl)-2-((2-methylbutyl)amino)ethan-1-one]",,15.4,70 ± 3,14 ± 4,6.44,< 30,toxic
92 ± 1,93 ± 1,3.35,,,"CCC(C)CNCC(=O)N1CCc2sccc2C1c1ccccc1O (centres unmarked) [Compound 34, 1-(4-(2-Hydroxyphenyl)-6,7-dihydrothieno[3,2-c]pyridin-5(4H)-yl)-2-((2-methylbutyl)amino)ethan-1-one]",,6.1,24 ± 1,20 ± 1,,,toxic
